The text below walks through data of ChEMBL document CHEMBL1136316, “Low molecular mass peptide dendrimers that express antimicrobial properties” (2003).

For orientation: MIC means the least concentration at which growth counts as inhibited.

The test system of one experiment is Escherichia coli. Description: Antimicrobial activity against Escherichia coli NCTC 8196. The class given is functional.
The next experiment concerns Staphylococcus aureus. Description: Antimicrobial activity against Staphylococcus aureus NCTC 4163. The format is functional.

In brackets after ≈: the same amount, converted by molar mass.

As to `NCCCC[C@@H](NC(=O)OCc1ccccc1)C(=O)NCCCC[C@@H](NC(=O)[C@@H](CCCCN)NC(=O)OCc1ccccc1)C(=O)NCC(N)=O`, the MIC amounted to 375 µM (≈ 273 µg/mL) in the experiment on Escherichia coli and 94 µM (≈ 68.3 µg/mL) with Staphylococcus aureus.
For `NCCCC[C@H](NC(=O)OCc1ccccc1)C(=O)N[C@@H](Cc1ccccc1)C(N)=O`, in that order: 324 µM (≈ 138 µg/mL) and 151 µM (≈ 64.4 µg/mL).
With `NCCCC[C@@H](NC(=O)OCc1ccccc1)C(=O)NCCCC[C@@H](NC(=O)[C@@H](CCCCN)NC(=O)OCc1ccccc1)C(=O)N[C@H](Cc1ccc(O)cc1)C(N)=O`, the MIC worked out at 165 µM (≈ 137 µg/mL) with Escherichia coli and 1330 µM (≈ 1110 µg/mL) with Staphylococcus aureus.
Consider `NC(=O)[C@@H](Cc1ccc(O)cc1)NC(=O)[C@@H](CCCCNC(=O)[C@H](N)CCCCNC(=O)OCc1ccccc1)NC(=O)[C@H](N)CCCCNC(=O)OCc1ccccc1`, for which the MIC against Escherichia coli and against Staphylococcus aureus was 331 µM (≈ 276 µg/mL) each time.
Turning to `NCCCC[C@@H](NC(=O)OCc1ccccc1)C(=O)NCCC[C@@H](NC(=O)[C@@H](CCCCN)NC(=O)OCc1ccccc1)C(=O)N[C@H](Cc1ccccc1)C(N)=O`, the MIC with Escherichia coli and in the experiment with Staphylococcus aureus was 85 µM (≈ 68.3 µg/mL) each time.
On to `NC(=O)[C@@H](Cc1ccccc1)NC(=O)[C@@H](CCCCNC(=O)[C@H](N)CCCCNC(=O)OCc1ccccc1Cl)NC(=O)[C@H](N)CCCCNC(=O)OCc1ccccc1Cl`, for which the values for the MIC against Escherichia coli and in the experiment with Staphylococcus aureus were 84 µM (≈ 74.4 µg/mL) and 16 µM (≈ 14.2 µg/mL), respectively.
The matching figures for `COC(=O)[C@H](Cc1ccccc1)NC(=O)[C@@H](N)CCCCN`: 590 µM (≈ 181 µg/mL) and 300 µM (≈ 92.2 µg/mL).
The matching figures for `NC(=O)[C@@H](Cc1ccccc1)NC(=O)[C@@H](CCCCNC(=O)[C@@H](CCCCNC(=O)[C@@H](N)CCCN=C(N)N)NC(=O)[C@@H](N)CCCN=C(N)N)NC(=O)[C@@H](CCCCNC(=O)C(N)CCCN=C(N)N)NC(=O)[C@H](N)CCCN=C(N)N` (stereo partly specified): 75 µM (≈ 88 µg/mL) and 130 µM (≈ 153 µg/mL).
For `N=C(N)NCCC[C@@H](NC(=O)OCc1ccccc1)C(=O)NCCCC[C@H](NC(=O)[C@@H](CCCN=C(N)N)NC(=O)OCc1ccccc1)C(=O)N[C@H](CCCCNC(=O)C(CCCCNC(=O)[C@H](CCCN=C(N)N)NC(=O)OCc1ccccc1)NC(=O)[C@H](CCCN=C(N)N)NC(=O)OCc1ccccc1)C(=O)N[C@H](Cc1ccccc1)C(N)=O` (stereo partly specified), in that order: 20 µM (≈ 34.2 µg/mL) and 44 µM (≈ 75.2 µg/mL).
`NCCCC[C@@H](NC(=O)OCc1ccccc1)C(=O)NCCCC[C@@H](NC(=O)[C@@H](CCCCN)NC(=O)OCc1ccccc1)C(=O)N[C@H](Cc1ccccc1)C(N)=O`: the figures for the MIC in the experiment with Escherichia coli and in the experiment on Staphylococcus aureus were 64 µM (≈ 52.3 µg/mL) and 39 µM (≈ 31.9 µg/mL), respectively.
For `C[C@H](N)C(=O)NCCCC[C@H](NC(=O)[C@H](C)N)C(=O)NCCCC[C@H](NC(=O)[C@H](CCCCNC(=O)[C@H](C)N)NC(=O)[C@H](C)N)C(=O)N[C@@H](Cc1ccccc1)C(N)=O` (stereo in doubt), in that order: 181 µM (≈ 151 µg/mL) and 181 µM (≈ 151 µg/mL).
`N=C(N)NCCCC(NC(=O)OCc1ccccc1)C(=O)NCCCC[C@@H](NC(=O)C(CCCN=C(N)N)NC(=O)OCc1ccccc1)C(=O)N[C@H](CCCCNC(=O)[C@@H](CCCCNC(=O)C(CCCN=C(N)N)NC(=O)OCc1ccccc1)NC(=O)C(CCCN=C(N)N)NC(=O)OCc1ccccc1)C(=O)N[C@H](Cc1ccccc1)C(N)=O` (stereo in doubt): the results for the MIC against Escherichia coli and against Staphylococcus aureus were 44 µM (≈ 75.2 µg/mL) and 88 µM (≈ 150 µg/mL), respectively.
For the compound `N=C(N)NCCCC(NC(=O)OCc1ccccc1)C(=O)NCCCCC(NC(=O)C(CCCN=C(N)N)NC(=O)OCc1ccccc1)C(=O)NCCCCC(NC(=O)C(CCCCNC(=O)C(CCCN=C(N)N)NC(=O)OCc1ccccc1)NC(=O)C(CCCN=C(N)N)NC(=O)OCc1ccccc1)C(=O)N[C@H](Cc1ccccc1)C(N)=O` (stereo in doubt), the MIC is 20 µM (≈ 34.2 µg/mL) against Escherichia coli and 44 µM (≈ 75.2 µg/mL) against Staphylococcus aureus.
